According to US10369138B2, “Monobactam organic compounds for the treatment of bacterial infections” (Novartis AG, priority 2014, dated 2019):
Values after ≈ are worked out from the molar mass of the structure shown. Read-outs that look alike come from different tables or passages of the source.

What was measured:
E. coli strain 25922 = assay: MIC by broth microdilution, E. coli strain 25922; type: cell-based
Outline: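 CLSI broth microdilution in cation-adjusted Mueller-Hinton broth, inoculum about 5×10^5 CFU/mL, 10% DMSO from the diluted series, 20 h at 35-37° C. MIC is the lowest concentration preventing visible growth, read by eye and at 600 nm.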

E. coli containing KPC-2 = assay: MIC by broth microdilution, E. coli containing KPC-2 (Ec KPC2 Iso); type: cell-based; settings: Escherichia coli, read-out: Ec KPC2 Iso (MIC), E. coli containing KPC-2 (carbapenemase from Klebsiella pneumoniae)
Outline: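 Host E. coli BW25113 pspB carrying multicopy pBAD18-kan plasmid with constitutive TEM-promoter KPC-2 expression (periplasmic signal sequence); broth microdilution per CLSI in cation-adjusted Mueller-Hinton broth, inoculum ~5×10^5 CFU/mL, compounds twofold serially diluted from DMSO masters (10% DMSO in dilution series added).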

[1] = Escherichia coli, 25922, E. coli strain 25922, read-out: Ec 25922 (MIC)

SMILES: N=C(NCCCN)NCc1cn(C[C@@H]2[C@H](NC(=O)/C(=N\OC3(C(=O)O)CC3)c3csc(N)n3)C(=O)N2S(=O)(=O)O)nn1 [Example 120, 1-(((Z)-(2-(((2R,3S)-2-((4-((3-(3-aminopropyl)guanidino)methyl)-1H-1,2,3-triazol-1-yl)methyl)-4-oxo-1-sulfoazetidin-3-yl)amino)-1-(2-aminothiazol-4-yl)-2-oxoethylidene)amino)oxy)cyclopropanecarboxylic acid]
- MIC (E. coli strain 25922; [1]): 0.25 µg/mL (≈ 0.398 µM)
- MIC (E. coli containing KPC-2): 0.5 µg/mL (≈ 0.795 µM)

SMILES: CC(C)(O/N=C(\C(=O)N[C@@H]1C(=O)N(S(=O)(=O)O)[C@@H]1CN1CCNC1=O)c1csc(N)n1)C(=O)O [Example 3, 2-(((Z)-(1-(2-aminothiazol-4-yl)-2-oxo-2-(((3S,4R)-2-oxo-4-((2-oxoimidazolidin-1-yl)methyl)-1-sulfoazetidin-3-yl)amino)ethylidene)amino)oxy)-2-methylpropanoic acid]
- MIC (E. coli strain 25922; [1]): 2 µg/mL (≈ 3.85 µM)
- MIC (E. coli containing KPC-2): 1 µg/mL (≈ 1.92 µM)

SMILES: N=C(NCc1cnn(C[C@@H]2[C@H](NC(=O)/C(=N\OC3(C(=O)O)CC3)c3csc(N)n3)C(=O)N2S(=O)(=O)O)n1)N[C@@H]1CCNC1 (stereo in doubt) [Example 142, 1-(((Z)-(1-(2-aminothiazol-4-yl)-2-oxo-2-(((3S,4R)-2-oxo-4-((4-((3-(®-pyrrolidin-3-yl)guanidino)methyl)-2H-1,2,3-triazol-2-yl)methyl)-1-sulfoazetidin-3-yl)amino)ethylidene)amino)oxy)cyclopropanecarboxylic acid]
- MIC (E. coli strain 25922; [1]): 0.5 µg/mL (≈ 0.78 µM)
- MIC (E. coli containing KPC-2): 0.25 µg/mL (≈ 0.39 µM)

SMILES: CC(C)(O/N=C(\C(=O)N[C@@H]1C(=O)N(S(=O)(=O)O)[C@@H]1Cc1cc(CN)on1)c1csc(N)n1)C(=O)O [Example 82, 2-(((Z)-(2-(((2R,3S)-2-((5-(aminomethyl)isoxazol-3-yl)methyl)-4-oxo-1-sulfoazetidin-3-yl)amino)-1-(2-aminothiazol-4-yl)-2-oxoethylidene)amino)oxy)-2-methylpropanoic acid]
- MIC (E. coli strain 25922; [1]): 0.5 µg/mL (≈ 0.941 µM)
- MIC (E. coli containing KPC-2): 0.5 µg/mL (≈ 0.941 µM)

SMILES: Nc1nc(/C(=N/OC2(C(=O)O)CC2)C(=O)N[C@@H]2C(=O)N(S(=O)(=O)O)[C@@H]2Cn2cncn2)cs1 [Example 18, 1-(((Z)-(2-(((2R,3S)-2-((1H-1,2,4-triazol-1-yl)methyl)-4-oxo-1-sulfoazetidin-3-yl)amino)-1-(2-aminothiazol-4-yl)-2-oxoethylidene)amino)oxy)cyclopropanecarboxylic acid]
- MIC (E. coli strain 25922; [1]): 0.5 µg/mL (≈ 0.999 µM)
- MIC (E. coli containing KPC-2): 0.25 µg/mL (≈ 0.5 µM)

SMILES: CC(C)(O/N=C(\C(=O)N[C@@H]1C(=O)N(S(=O)(=O)O)[C@@H]1CN1CCC1=O)c1csc(N)n1)C(=O)O [Example 113, 2-(((Z)-(1-(2-aminothiazol-4-yl)-2-oxo-2-(((3S,4R)-2-oxo-4-((2-oxoazetidin-1-yl)methyl)-1-sulfoazetidin-3-yl)amino)ethylidene)amino)oxy)-2-methylpropanoic acid]
- MIC (E. coli strain 25922; [1]): 4 µg/mL (≈ 7.93 µM)
- MIC (E. coli containing KPC-2): 4 µg/mL (≈ 7.93 µM)

SMILES: NCCCNC(=O)NCc1cnn(C[C@@H]2[C@H](NC(=O)/C(=N\OC3(C(=O)O)CC3)c3csc(N)n3)C(=O)N2S(=O)(=O)O)n1 [Example 136, 1-(((Z)-(2-(((2R,3S)-2-((4-((3-(3-aminopropyl)ureido)methyl)-2H-1,2,3-triazol-2-yl)methyl)-4-oxo-1-sulfoazetidin-3-yl)amino)-1-(2-aminothiazol-4-yl)-2-oxoethylidene)amino)oxy)cyclopropanecarboxylic acid]
- MIC (E. coli strain 25922; [1]): 0.5 µg/mL (≈ 0.794 µM)
- MIC (E. coli containing KPC-2): 0.5 µg/mL (≈ 0.794 µM)

SMILES: NCCNC[C@@H]1CN(C[C@@H]2[C@H](NC(=O)/C(=N\OC3(C(=O)O)CC3)c3csc(N)n3)C(=O)N2S(=O)(=O)O)C(=O)O1 [Example 97, 1-(((Z)-(2-(((2R,3S)-2-(((R)-5-(((2-aminoethyl)amino)methyl)-2-oxooxazolidin-3-yl)methyl)-4-oxo-1-sulfoazetidin-3-yl)amino)-1-(2-aminothiazol-4-yl)-2-oxoethylidene)amino)oxy)cyclopropanecarboxylic acid]
- MIC (E. coli strain 25922; Escherichia coli, 25922, read-out: Ec 25922 (MIC)): 0.125 µg/mL (≈ 0.212 µM)
- MIC (E. coli containing KPC-2): 0.125 µg/mL (≈ 0.212 µM)

SMILES: CC(C)(O/N=C(\C(=O)N[C@@H]1C(=O)N(S(=O)(=O)O)[C@@H]1Cn1cncn1)c1nsc(N)n1)C(=O)O [Example 16, 2-(((Z)-(2-(((2R,3S)-2-((1H-1,2,4-triazol-1-yl)methyl)-4-oxo-1-sulfoazetidin-3-yl)amino)-1-(5-amino-1,2,4-thiadiazol-3-yl)-2-oxoethylidene)amino)oxy)-2-methylpropanoic acid]
- MIC (E. coli strain 25922; [1]): 4 µg/mL (≈ 7.94 µM)
- MIC (E. coli containing KPC-2): 2 µg/mL (≈ 3.97 µM)

SMILES: NC[C@@H]1CN(C[C@@H]2[C@H](NC(=O)/C(=N\OC3(C(=O)O)CC3)c3csc(N)n3)C(=O)N2S(=O)(=O)O)C(=O)O1 [Example 25, 1-(((Z)-(2-(((2R,3S)-2-(((R)-5-(aminomethyl)-2-oxooxazolidin-3-yl)methyl)-4-oxo-1-sulfoazetidin-3-yl)amino)-1-(2-aminothiazol-4-yl)-2-oxoethylidene)amino)oxy)-cyclopropanecarboxylic acid]
- MIC (E. coli strain 25922; [1]): 0.125 µg/mL (≈ 0.228 µM)
- MIC (E. coli containing KPC-2): ≤ 0.06 µg/mL

SMILES: N=C(N[C@H]1CCNC1)c1ccc(OC[C@H](O/N=C(\C(=O)N[C@@H]2C(=O)N(S(=O)(=O)O)[C@@H]2Cn2cncn2)c2csc(N)n2)C(=O)O)cc1 [Example 71, (S)-2-(((Z)-(2-(((2R,3S)-2-((1H-1,2,4-triazol-1-yl)methyl)-4-oxo-1-sulfoazetidin-3-yl)amino)-1-(2-aminothiazol-4-yl)-2-oxoethylidene)amino)oxy)-3-(4-(N—((S)-pyrrolidin-3-yl)carbamimidoyl)phenoxy)propanoic acid]
- MIC (E. coli strain 25922; [1]): 0.25 µg/mL (≈ 0.361 µM)
- MIC (E. coli containing KPC-2): 0.25 µg/mL (≈ 0.361 µM)

SMILES: CC(C)(O/N=C(\C(=O)N[C@@H]1C(=O)N(S(=O)(=O)O)[C@@H]1Cn1cnc(CNC(=N)N)n1)c1csc(N)n1)C(=O)O [Example 11, 2-(((Z)-(1-(2-aminothiazol-4-yl)-2-(((2R,3S)-2-((3-(guanidinomethyl)-1H-1,2,4-triazol-1-yl)methyl)-4-oxo-1-sulfoazetidin-3-yl)amino)-2-oxoethylidene)amino)oxy)-2-methylpropanoic acid]
- MIC (E. coli strain 25922; [1]): 4 µg/mL (≈ 6.97 µM)
- MIC (E. coli containing KPC-2): 4 µg/mL (≈ 6.97 µM)

SMILES: N=C(NC1CCNCC1)c1ccc(OC[C@H](O/N=C(\C(=O)N[C@@H]2C(=O)N(S(=O)(=O)O)[C@@H]2CN2CCOC2=O)c2csc(N)n2)C(=O)O)cc1 [Example 64, (S)-2-(((Z)-(1-(2-aminothiazol-4-yl)-2-oxo-2-(((3S,4R)-2-oxo-4-((2-oxooxazolidin-3-yl)methyl)-1-sulfoazetidin-3-yl)amino)ethylidene)amino)oxy)-3-(4-(N-(piperidin-4-yl)carbamimidoyl)phenoxy)propanoic acid]
- MIC (E. coli strain 25922; [1]): 0.5 µg/mL (≈ 0.691 µM)
- MIC (E. coli containing KPC-2): 0.25 µg/mL (≈ 0.345 µM)

SMILES: CC(C)(O/N=C(\C(=O)N[C@@H]1C(=O)N(S(=O)(=O)O)[C@@H]1Cn1cnc(C#N)n1)c1csc(N)n1)C(=O)O [Example 105, 2-(((Z)-(1-(2-aminothiazol-4-yl)-2-(((2R,3S)-2-((3-cyano-1H-1,2,4-triazol-1-yl)methyl)-4-oxo-1-sulfoazetidin-3-yl)amino)-2-oxoethylidene)amino)oxy)-2-methylpropanoic acid]
- MIC (E. coli strain 25922; [1]): 16 µg/mL (≈ 30.3 µM)
- MIC (E. coli containing KPC-2): 32 µg/mL (≈ 60.7 µM)

SMILES: N=C(NCc1cnn(C[C@@H]2[C@H](NC(=O)/C(=N\OC3(C(=O)O)CC3)c3csc(N)n3)C(=O)N2S(=O)(=O)O)n1)N1CC[C@H](N)C1 [Example 150, 1-(((Z)-(2-(((2R,3S)-2-((4-(((S)-3-aminopyrrolidine-1-carboximidamido)methyl)-2H-1,2,3-triazol-2-yl)methyl)-4-oxo-1-sulfoazetidin-3-yl)amino)-1-(2-aminothiazol-4-yl)-2-oxoethylidene)amino)oxy)cyclopropanecarboxylic acid]
- MIC (E. coli strain 25922; [1]): 1 µg/mL (≈ 1.56 µM)
- MIC (E. coli containing KPC-2): 0.5 µg/mL (≈ 0.78 µM)

SMILES: CC(C)(O/N=C(\C(=O)N[C@@H]1C(=O)N(S(=O)(=O)O)[C@@H]1Cn1ccccc1=O)c1csc(N)n1)C(=O)O [Example 15, 2-(((Z)-(1-(2-aminothiazol-4-yl)-2-oxo-2-(((3S,4R)-2-oxo-4-((2-oxopyridin-1(2H)-yl)methyl)-1-sulfoazetidin-3-yl)amino)ethylidene)amino)oxy)-2-methylpropanoic acid]
- MIC (E. coli strain 25922; [1]): 16 µg/mL (≈ 30.3 µM)
- MIC (E. coli containing KPC-2): 8 µg/mL (≈ 15.1 µM)

SMILES: CC(C)(O/N=C(\C(=O)N[C@@H]1C(=O)N(S(=O)(=O)O)[C@@H]1Cn1cnc(CN)n1)c1csc(N)n1)C(=O)O [Example 10, 2-(((Z)-(2-(((2R,3S)-2-((3-(aminomethyl)-1H-1,2,4-triazol-1-yl)methyl)-4-oxo-1-sulfoazetidin-3-yl)amino)-1-(2-aminothiazol-4-yl)-2-oxoethylidene)amino)oxy)-2-methylpropanoic acid]
- MIC (E. coli strain 25922; [1]): 4 µg/mL (≈ 7.53 µM)
- MIC (E. coli containing KPC-2): 11 µg/mL (≈ 20.7 µM)

SMILES: CC(C)(O/N=C(\C(=O)N[C@@H]1C(=O)N(S(=O)(=O)O)[C@@H]1Cn1cc(CNC(=O)C[N+](C)(C)C)nn1)c1csc(N)n1)C(=O)O [Example 43, (3S,4R)-3-((Z)-2-(2-aminothiazol-4-yl)-2-(((2-carboxypropan-2-yl)oxy)imino)acetamido)-2-oxo-4-((4-((2-(trimethylammonio)acetamido)methyl)-1H-1,2,3-triazol-1-yl)methyl)azetidine-1-sulfonate]
- MIC (E. coli strain 25922; [1]): 2 µg/mL
- MIC (E. coli containing KPC-2): 2 µg/mL

SMILES: C[n+]1cccc(CNCc2cnn(C[C@@H]3[C@H](NC(=O)/C(=N\OC4(C(=O)O)CC4)c4csc(N)n4)C(=O)N3S(=O)(=O)O)n2)c1 [Example 137, (2R,3S)-3-((Z)-2-(2-aminothiazol-4-yl)-2-((1-carboxycyclopropoxy)-imino)acetamido)-2-((4-((((1-methylpyridin-1-ium-3-yl)methyl)amino)methyl)-2H-1,2,3-triazol-2-yl)methyl)-4-oxoazetidine-1-sulfonate]
- MIC (E. coli strain 25922; [1]): 1 µg/mL
- MIC (E. coli containing KPC-2): 0.5 µg/mL
